# Results published in patent US20220354974A1, “REAGENTS AND METHODS FOR LABELING MOLECULES WITH ASTATINE ISOTOPES IN HIGHER OXIDATION STATES” (priority 2021, published 2022).
# Test: Stability in solution of 211At-labeling products of biotin-sarcosine-bis-B10 by radio-HPLC
# Type: physicochemical
# Method: FIGS. 22A-22D compare radio-HPLC chromatograms of reaction product from ^211At labeling of Compound 8 (see FIG. 21): 0.1 mg of Compound 8 was reacted with ^211At in 5% HOAc in MeOH/H2O without ChT at room temperature for 5 min (22A) and the reaction mixture sat at room temperature for about 1 h (22B); and 0.1 mg of Compound 8 was reacted with ^211At in 5% HOAc in MeOH/H2O with 10 μg of ChT at room temperature for 3 min. (22C) the reaction mixture after setting at room temperature for about 2 h (22D).
# In an ^211At-labeling reaction with biotin-sarcosine-bis-B10, 8, a solution of [^211At]NaAt in 5% HOAc in MeOH/H2O was reacted at room temperature for 5 min without an oxidant. The reaction was quenched with 10 μL of 1 mg/mL Na2S2O5 (a reductant). The reaction provided one major ^211At labeled product (95%) as shown the radio-HPLC peak at about 10.1 min (FIG. 22A). […] In another ^211At-labeling reaction, the same reaction conditions as above were used except a chemical oxidant chloramine-T (ChT) was added to the reaction solution. The reaction with ChT provided multiple products that were eluted from 9-11 min. After sitting at room temperature for 2 h, a significant amount of free ^211At was observed (29%) (FIG. 22D).
substance,measurement,setting,value
"3,5-B10H9-dioxa-Ph-Sar-Biotin [Compound 8]",free 211At observed,"labeled with ChT, after sitting at room temperature for 2 h",29%
same,change in 211At-labeled product in solution,"labeled without oxidant, quenched, 1 h at room temperature",No change
